Consider 75 compounds from PubChem BioAssay AID1224920 (Broad Institute, 2016).

Molecules are shown by their SMILES. Several values for one entry are separate records, joined by “and”; a condition that tells them apart may be missing. Equal entries are not always repeated. Activity calls are given as the source filed them.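 How the source made its calls: active means IC50 no higher than ten times the top tested dose; inconclusive means flat fit with 30 to 70% inhibition, or poor fit; inactive means IC50 above ten times the top dose.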 Some results are limits rather than exact numbers.

This experiment deals with Clostridium difficile clinical isolate growth, OD600, 24 h. In words: growth modulation of Clostridium difficile isolate – OD600, 9-point, retest, dose response (AID 1224920).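 Further: inhibitors lower culture turbidity so OD600 falls.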
The IC50 is the point on the concentration scale where inhibition reaches its midpoint. For `OC[C@H]1Nc2ccc(-c3ccccc3)cc2[C@@H]2[C@H]1CCN2Cc1ccccc1F`, the IC50 is 129 µM. As for `CCCNC(=O)C[C@@H]1CC[C@H]2[C@@H](COC[C@@H](O)CN2C(=O)Nc2ccc(Cl)c(Cl)c2)O1`, the IC50 is 8.45 µM. `O=C(Nc1ccc(F)cc1)N1CCCCN2[C@H](CO)[C@H](c3ccc(-c4cccc(F)c4)cc3)[C@H]2C1`: the IC50 is 70.3 µM. Consider `O=C(C1CC1)N1C[C@@H]2N[C@H](C1)C2c1ccc(/C=C/c2ccccc2)cc1` (stereo not given in full), for which the IC50 was 70.3 µM.

Take `O=C(C[C@H]1CC[C@@H]2[C@H](COC[C@H](O)CN2C(=O)Nc2ccc(C(F)(F)F)cc2)O1)NC1Cc2ccccc2C1`: the half-maximal inhibitory concentration (IC50) was 36.6 µM. Take `N#Cc1ccc(-c2ccc(C3[C@@H]4CN(C(=O)Nc5ccc(C(F)(F)F)cc5)C[C@H]3N4)cc2)cc1` (stereo not given in full): the IC50 was 29.7 µM.

Take `O=C(Nc1ccc(F)cc1)N1C[C@@H]2N[C@H](C1)C2c1ccc(-c2ccccc2F)cc1` (stereo not given in full): the IC50 was 36.7 µM and 57.5 µM. Regarding `Fc1ccccc1-c1ccc(C2[C@@H]3CN(Cc4ccccc4)C[C@H]2N3)cc1` (stereo not given in full), the IC50 was 4.68 µM and 7.81 µM. Regarding `C[C@@H]1CN([C@@H](C)CO)C(=O)c2ccccc2-c2ccccc2CO[C@H]1CN(C)Cc1ccccc1C(F)(F)F`, the IC50 is > 270 µM (inactive).

On to `COc1ccc(-c2ccc(C3[C@H]4CNC[C@@H]3N4Cc3ccc4c(c3)OCO4)cc2)cc1` (stereo not given in full), for which the IC50 is 53.1 µM. In the case of `O=S(=O)(Cc1ccccc1)N1C[C@@H]2N[C@H](C1)C2c1ccc(-c2ccccc2)cc1` (stereo not given in full), the IC50 was 59.7 µM. For `COc1cc(CN2[C@@H]3CNC[C@H]2C3c2ccc(-c3ccc(C#N)cc3)cc2)cc(OC)c1` (stereo not given in full) the value was 48.1 µM. For `COc1cc(CN2C[C@@H]3N[C@H](C2)C3c2ccc(/C=C/c3ccccc3)cc2)cc(OC)c1` (stereo not given in full) the value was 9.5 µM. As for `COc1cccc(-c2ccc(C3[C@@H]4CN(Cc5cccc(F)c5)C[C@H]3N4)cc2)c1` (stereo not given in full), the IC50 is 9.52 µM and 7.62 µM.

For `C/C=C/c1ccc(C2[C@H]3CNC[C@@H]2N3Cc2cccc(F)c2)cc1` (stereo not given in full), the half-maximal inhibitory concentration (IC50) is 31.1 µM. `Cc1ccc(-c2ccc([C@H]3[C@@H](CO)N4CCCCN(C(=O)c5ccc(F)cc5)C[C@H]34)cc2)cc1`: the IC50 is 30.7 µM. In the case of `O=C(C[C@H]1CC[C@H]2[C@@H](COC[C@H](O)CN2C(=O)Nc2ccc(C(F)(F)F)cc2)O1)NCC1CCCCC1`, the concentration for half-maximal inhibition (IC50) is 7.15 µM. For `O=C(Nc1ccc(C(F)(F)F)cc1)N1C[C@@H]2N[C@H](C1)C2c1ccc(-c2ccccc2)cc1` (stereo not given in full) the value was 3.18 µM and 4.52 µM; for `O=C(C[C@@H]1CC[C@@H]2[C@H](COC[C@H](O)CN2C(=O)Nc2ccc(C(F)(F)F)cc2)O1)NC1Cc2ccccc2C1`, 17.5 µM; for `Fc1cccc(-c2ccc(C3[C@@H]4CN(Cc5ccccc5F)C[C@H]3N4)cc2)c1` (stereo not given in full), 6.44 µM and 6.35 µM. In the case of `O=C(C[C@H]1CC[C@@H]2[C@H](COC[C@@H](O)CN2C(=O)Nc2ccc(Cl)c(Cl)c2)O1)NCc1ccncc1`, the IC50 was 8.71 µM. To `O=C(C[C@@H]1CC[C@H]2[C@@H](COC[C@@H](O)CN2C(=O)Nc2ccc(C(F)(F)F)cc2)O1)NCC1CCCCC1` belongs 7.5 µM. As for `O=C(Nc1cccc(F)c1)N1CCCCN2[C@H](CO)[C@H](c3ccc(-c4ccccc4F)cc3)[C@H]2C1`, the IC50 was 24.5 µM.

Regarding `Cc1ccc(-c2ccc([C@H]3[C@@H](CO)N4CCCCN(S(=O)(=O)c5cccc(C)c5)C[C@H]34)cc2)cc1`, the IC50 is 13.7 µM. On to `N#Cc1ccc(-c2ccc3c(c2)[C@H]2[C@H](CCN2Cc2ccc4c(c2)OCO4)[C@H](CO)N3)cc1`, for which the IC50 is 23.4 µM. In the case of `Cc1cccc(-c2ccc(C3[C@@H]4CN(C(=O)C5CCCCC5)C[C@H]3N4)cc2)c1` (stereo not given in full), the IC50 was 26.6 µM. With `Cc1cccc(S(=O)(=O)N2C[C@@H]3N[C@H](C2)C3c2ccc(-c3ccccc3C)cc2)c1` (stereo not given in full), the IC50 is 12.5 µM. For `COc1cccc(-c2ccc(C3[C@@H]4CN(S(=O)(=O)c5ccccc5F)C[C@H]3N4)cc2)c1` (stereo not given in full), the half-maximal inhibitory concentration (IC50) is 82 µM. For the compound `COc1ccccc1NC(=O)N1CCCCN2[C@@H](CO)[C@H](c3ccc(-c4cccc(C)c4)cc3)[C@@H]2C1`, the concentration for half-maximal inhibition (IC50) was 93.9 µM. To `Cc1ccc(-c2ccc([C@@H]3[C@@H]4CN(Cc5ccccc5F)C[C@H]3N4)cc2)cc1` belongs 4.19 µM; to `Cc1ccccc1-c1ccc(C2[C@@H]3CN(S(=O)(=O)c4ccccc4C)C[C@H]2N3)cc1` (stereo not given in full), 27.5 µM.

As to `Cc1ccccc1-c1ccc([C@@H]2[C@H](CO)N3CCCCN(C(=O)Nc4ccc(F)cc4)C[C@@H]23)cc1`, the 50% inhibitory concentration (IC50) is 13.9 µM. Take `CCCC#Cc1ccc([C@H]2[C@@H](CO)N3CCCCN(S(=O)(=O)Cc4ccccc4)C[C@H]23)cc1`: the IC50 is 34.2 µM.

As for `CCNC(=O)C[C@@H]1CC[C@@H]2[C@H](COC[C@H](O)CN2C(=O)Nc2ccc(C(F)(F)F)cc2)O1`, the IC50 was 16.1 µM. Regarding `O=C(Nc1ccc(F)cc1)N1CCCCN2[C@@H](CO)[C@@H](c3ccc(-c4ccccc4F)cc3)[C@@H]2C1`, the IC50 is 35 µM. On to `COc1cc(CN2[C@@H]3CNC[C@H]2C3c2ccc(/C=C/c3ccccc3)cc2)cc(OC)c1` (stereo not given in full), for which the concentration for half-maximal inhibition (IC50) was 12.2 µM. Turning to `CCCNC(=O)C[C@@H]1CC[C@@H]2[C@H](COC[C@H](O)CN2C(=O)Nc2ccc(Cl)c(Cl)c2)O1`, the 50% inhibitory concentration (IC50) was 12 µM.

In the case of `COc1ccc(C#Cc2ccc([C@@H]3[C@@H](CO)N4CCCCN(Cc5ccccc5F)C[C@@H]34)cc2)cc1`, the IC50 was 25.4 µM. With `Fc1cccc(-c2ccc([C@@H]3[C@@H]4CN(Cc5nccs5)C[C@H]3N4)cc2)c1`, the concentration for half-maximal inhibition (IC50) is 66.3 µM.

As to `O=C(NC[C@@H]1N[C@@H](CO)[C@H]1c1ccc(C2=CCCCC2)cc1)c1ccccc1`, the IC50 was 65.8 µM.

Regarding `Fc1cccc(CN2C[C@@H]3N[C@H](C2)C3c2ccc(-c3ccccc3)cc2)c1` (stereo not given in full), the IC50 is 8.38 µM and 10.4 µM. As for `COc1ccccc1NC(=O)N1CCCCN2[C@H](CO)[C@H](c3ccc(-c4cccc(C)c4)cc3)[C@H]2C1`, the half-inhibitory concentration (IC50) is 10.3 µM. Take `Cc1ccccc1-c1ccc([C@H]2[C@@H](CO)N3CCCCN(C(=O)Nc4ccc(F)cc4)C[C@H]23)cc1`: the IC50 is 27.4 µM. `CCNC(=O)C[C@H]1CC[C@@H]2[C@H](COC[C@H](O)CN2C(=O)Nc2ccc(C(F)(F)F)cc2)O1`: the IC50 is 9.45 µM. For `CCNC(=O)C[C@@H]1CC[C@H]2[C@@H](COC[C@@H](O)CN2C(=O)Nc2ccc(C(F)(F)F)cc2)O1` the value was 12.2 µM.

As for `Fc1cccc(CN2C[C@@H]3N[C@H](C2)C3c2ccc(/C=C/c3ccccc3)cc2)c1` (stereo not given in full), the concentration for half-maximal inhibition (IC50) is 1.8 µM and 4.45 µM.

`O=C(c1ccc(F)cc1)N1CC(=O)N2[C@H](CO)[C@H](c3ccc(C#CCC4CCCC4)cc3)[C@H]2C1`: the IC50 is 81.6 µM.

Regarding `O=C(Nc1ccc(F)cc1)N1[C@@H]2CNC[C@H]1C2c1ccc(/C=C/c2ccccc2)cc1` (stereo not given in full), the 50% inhibitory concentration (IC50) was 13.8 µM. For the compound `Cc1cccc(S(=O)(=O)N2CCCCN3[C@H](CO)[C@H](c4ccc(C#CC5CC5)cc4)[C@H]3C2)c1`, the half-maximal inhibitory concentration (IC50) was 27.9 µM. Regarding `O=C(Nc1cccc(Cl)c1)N1[C@@H]2CNC[C@H]1C2c1ccc(-c2ccccc2)cc1` (stereo not given in full), the half-maximal inhibitory concentration (IC50) is 44.8 µM and 74.3 µM. As for `O=C(C1CCCCC1)N1CC2(C1)[C@H](c1ccccc1)[C@H](CO)N2Cc1ccc(Cl)cc1`, the IC50 was 33.7 µM. `COc1ccc(-c2ccc(C3[C@H]4CNC[C@@H]3N4C(=O)Nc3ccc(C(F)(F)F)cc3)cc2)cc1` (stereo not given in full): the half-maximal inhibitory concentration (IC50) is 65.7 µM and 10.6 µM. To `COc1cccc(C#Cc2ccc3c(c2)[C@@H]2[C@@H](CCN2C(=O)c2ccccc2F)[C@@H](CO)N3C)c1` belongs 27.7 µM; to `O=C(c1cccc(F)c1)N1CC[C@H]2[C@H](CO)Nc3ccc(-c4cccc(F)c4)cc3[C@H]21`, 124 µM. To `N#Cc1cccc(-c2ccc(C3[C@@H]4CN(Cc5ccccc5F)C[C@H]3N4)cc2)c1` (stereo not given in full) belongs 28.6 µM and 26.1 µM. With `Cc1ccccc1-c1ccc([C@@H]2[C@H](CO)N3CCCCN(C(=O)Nc4cccc(F)c4)C[C@@H]23)cc1`, the IC50 was 14.7 µM.

Take `COc1ccc(C#Cc2ccc([C@H]3[C@H](CO)N4CCCCN(C(=O)Nc5ccc(F)cc5)C[C@@H]34)cc2)cc1`: the IC50 is 5.67 µM.

Consider `O=C(c1ccc(F)cc1)N1CC(=O)N2[C@@H](CO)[C@H](c3ccc(C#CCC4CCCC4)cc3)[C@@H]2C1`, for which the IC50 was 15.7 µM.

With `OC[C@@H]1Nc2ccc(C#Cc3ccc(F)cc3)cc2[C@H]2NCC[C@@H]12`, the IC50 is 59.4 µM. Consider `O=C(Nc1ccc(C(F)(F)F)cc1)N1C[C@@H]2N[C@H](C1)C2c1ccc(-c2cccc(F)c2)cc1` (stereo not given in full), for which the IC50 is 2.63 µM and 2.5 µM. To `FC(F)(F)c1cccc(CN2[C@@H]3CNC[C@H]2[C@@H]3c2ccc(-c3cccnc3)cc2)c1` belongs 103 µM. In the case of `OC[C@H]1[C@@H](c2ccc(-c3cccc(F)c3)cc2)[C@@H]2CN(CCC(F)(F)F)CCCCN12`, the IC50 is 53.8 µM.

Regarding `COc1ccc(C#Cc2ccc([C@@H]3[C@H](CO)N4CCCCN(C(=O)Nc5ccc(F)cc5)C[C@@H]34)cc2)cc1`, the IC50 was 6.67 µM. Regarding `O=C(Nc1cccc(F)c1)N1C[C@@H]2N[C@H](C1)C2c1ccc(-c2ccccc2F)cc1` (stereo not given in full), the 50% inhibitory concentration (IC50) was 27 µM and 65.3 µM. Take `O=C(Nc1ccccc1F)N1CCCCN2[C@@H](CO)[C@@H](c3ccc(/C=C/c4ccccc4)cc3)[C@@H]2C1`: the half-inhibitory concentration (IC50) was 11.5 µM. On to `Cc1ccccc1S(=O)(=O)N1CCCCN2[C@H](CO)[C@H](c3ccc(-c4cccc(F)c4)cc3)[C@H]2C1`, for which the concentration for half-maximal inhibition (IC50) is 11.3 µM. Consider `Cc1ccc(S(=O)(=O)N2[C@@H]3CNC[C@H]2C3c2ccc(-c3cccc(C)c3)cc2)cc1` (stereo not given in full), for which the IC50 is 32.1 µM. Turning to `O=C(Nc1ccc2c(c1)OCO2)N1C[C@@H]2N[C@H](C1)C2c1ccc(C=Cc2ccccc2)cc1` (stereo not given in full), the concentration for half-maximal inhibition (IC50) is 28.3 µM. As to `COc1ccc(C#Cc2ccc([C@H]3[C@H](CO)N4CCCCN(Cc5ccccc5F)C[C@@H]34)cc2)cc1`, the IC50 was 11 µM. For `COc1ccc(-c2ccc(C3[C@@H]4CN(Cc5cccc(OC)c5)C[C@H]3N4)cc2)cc1` (stereo not given in full) the value was 38.5 µM and 16.2 µM; for `Cc1ccccc1-c1ccc([C@H]2[C@H](CO)N3CCCCN(C(=O)Nc4cccc(F)c4)C[C@@H]23)cc1`, 29.1 µM; for `O=C(Nc1ccc(F)cc1)N1CCCCN2[C@@H](CO)[C@@H](c3ccc(-c4cccc(F)c4)cc3)[C@@H]2C1`, 13.2 µM. Regarding `O=C(c1cnccn1)N1CC(=O)N2[C@H](C1)[C@@H](c1ccc(C#CCc3ccccc3)cc1)[C@@H]2CO`, the IC50 is > 240 µM (inactive). As to `COc1cccc(CN2C[C@@H]3N[C@H](C2)C3c2ccc(-c3ccccc3C)cc2)c1` (stereo not given in full), the IC50 is 5.48 µM and 13.3 µM. As for `Cc1ccccc1-c1ccc(C2[C@H]3CNC[C@@H]2N3C(=O)Nc2ccc(Cl)cc2)cc1` (stereo not given in full), the 50% inhibitory concentration (IC50) was 16.9 µM and 34.3 µM.
